Consider one molecule from US20220332821A1, “DOSING REGIMEN AND COMBINATION THERAPIES FOR MULTISPECIFIC ANTIBODIES TARGETING B-CELL MATURATION ANTIGEN” (NOVARTIS AG, priority 2019, published 2022).

“Also recorded” adds a separate entry of the source.

Experiment [1] has as its system BCMA shedding in KMS11 cells. Briefly: Shed BCMA levels by ELISA after GSI treatment of KMS11 cells. The format is cell-based, human. The note with it: 20 hours, serial dilution from 1 μM. Here is the method:
(§1) KMS11-Luc cells were cultured in a 96-well round bottomed plate (Corning #3799) at 1.5×10^5 cells per well in a final volume of 200 μL that included a 12-point, 5-fold serial dilution of AL-102 in RPMI1640 (Gibco #11875-085) supplemented with 20% FBS (Seradigm #1500-500) and L-glutamine (Thermo Fisher #25030-081). The highest starting concentration of AL-102 was 1 μM. Cells were incubated for 20 hours at 37° C./5% CO2. Cells were pelleted, supernatant collected for measurement of shed BCMA levels, and cell pellets stained for evaluation of BCMA membrane expression levels.
Soluble BCMA levels in supernatant were determined by ELISA following a vendor supplied protocol (R&D Systems #DY193). Briefly, recombinant human BCMA-Fc protein was included in the kit, and used to generate a standard curve. Collected samples were assayed and sBCMA concentrations extrapolated from the standard curve. Quantified values as determined by the kit were divided by 5.5 to correct for a molecular mass difference between BCMA-Fc fusion protein used in the kit as a standard curve (32,554.6 Da) and the mass of endogenously shed BCMA extra-cellular domain (5,899.3 Da). The results were analyzed using SoftMax Pro v5.4.1 and graphed in GraphPad Prism.

The subject of experiment [2] is membrane BCMA on KMS11 cells. Kind of experiment: BCMA membrane expression by flow cytometry after GSI treatment of KMS11 cells. The format is cell-based, human. On the procedure: as §1
Cells were pelleted by centrifugation, and supernatants were transferred to a fresh plate and frozen at −80° C. for later sBCMA analysis by ELISA. For membrane BCMA analysis, cell pellets were resuspended in 100 μL BD Stain Buffer containing BSA (BD#554657) and stained with anti-BCMA-PE (Biolegend, clone 19F2 1.25 ul/test) and Fixable Viability Dye eFluor506 (Thermo Scientific, 1:800 dilution) for 30 minutes at 4° C. Samples were analyzed by flow cytometry on a BD LSR Fortessa instrument. FlowJo v10 software was used for analysis. The anti-BCMA antibody binding capacity (ABC) on KMS11 cells was determined using Quantum Simply Cellular beads (Bangs Laboratories) following a vendor supplied protocol. The ABC is an estimate of the quantity of receptors per cell.

Experiment [3] deals with KMS11-Luc cells. Briefly: RTCC assay with KMS11-Luc and human T cells, BSBM3 and AL-102 matrix, Example 9. The format is cell-based. On the procedure: To evaluate the ability of AL-102 to enhance the activity of BSBM3, a redirected T cell cytotoxicity (RTCC) assay was performed using human T cells and a BCMA-expressing multiple myeloma cell line treated with dose range combinations of BSBM3 and AL-102 in a 10×8 matrix fashion. Human T cells were enriched from peripheral blood of three healthy human donors. First, peripheral blood mononuclear cells (PBMCs) were fractionated from donor blood using a Ficoll-Paque PLUS density gradient (GE Healthcare #17-1440-02) in Leucosep tubes (Greiner #227290) and stored as viable frozen aliquots in liquid nitrogen. PBMC were thawed and Pan T cells were isolated by negative selection according to manufacturer's recommended protocol (Miltenyi #130-096-535). The unlabeled cell fraction, enriched for T cells, was collected by manual magnetic separation on LS columns (Miltenyi #130-042-401). T cells were prepared in T cell media (TCM) consisting of RPMI-1640 (Gibco #11875-085), 10% FBS (Seradigm #1500-500), 1% Pen/Strep (Life Technologies #15070063), 1% L-glutamine (Thermo Scientific #25030-081), 1% Non-Essential Amino Acids (NEAA) (Life Technologies #11140-050), Sodium Pyruvate (NaPy) (Life Technologies #11360-070), HEPES (Life technologies, Cat #15630080), 0.1% 2-Betamercaptoethanol (2-BME) (Life Technologies, Cat #21985-023). KMS11 multiple myeloma cell line was cultured in RPMI1640 supplemented with 20% FBS (Gibco #11875-085, Seradigm #1500-500). The target MM cell line KMS11 was transduced to constitutively express luciferase (KMS11-Luc), and used to measure cell viability/survival. KMS11-Luc cells were pelleted and resuspended in fresh media immediately prior to plating to remove any basal level of shed BCMA that may be present. 7,500 KMS11-Luc target cells in 10 μL TCM were added to wells of 384-well plates (Corning #3765). 10 μl of BSBM3 at a concentration of 10 nM was serially diluted 5-fold, and 10 μl of AL-102 at a concentration of 1000 nM was serially diluted 5-fold, and dispensed into corresponding wells of the assay plates. 15,000 T cells were added to corresponding wells of the assay plate in 10 μL TCM for an E:T of 2:1. The assay was incubated at 37° C./5% CO2 for 48 hr, followed by measurement of luciferase activity to indicate target cell viability (BrightGlo, Promega #E2650) following manufacturer's protocols. Plates were read on an Envision plate reader. Target cells only (KMS11-Luc) without T cells or antibodies served as control and represent 100% luciferase activity (100% viability). Data were plotted and analyzed using GraphPad Prism. EC50 values were calculated using sigmoidal, 4-parameter non-linear regression curve fit.

With `Cc1cccc2c1NC(=O)[C@@H](NC(=O)[C@H](CCC(F)(F)F)[C@H](CCC(F)(F)F)C(N)=O)N=C2c1cccc(F)c1` [AL-102], in experiment [1], the “inhibition of BCMA shedding” value is “effectively inhibited shedding of BCMA from KMS11 cells in a dose-dependent manner”. In experiment [2] (1 μM AL-102 versus untreated KMS11 cells), the “increase in cell surface BCMA expression” value is listed as 20 fold. In addition, the “average BCMA antibody-binding capacity (ABC)” value in experiment [2] (KMS11 cells, 1 μM AL-102, 20 hours, untreated ˜14,000) is reported as ~285,000. Moreover, in experiment [3] (RTCC combination matrix), the “AL-102 concentration with minimal effect on BSBM3 potency” value is at most 0.32 nM, the “AL-102 concentration with moderate effect on BSBM3 potency” value is 1.6 nM and the “AL-102 concentrations with maximum enhancement of BSBM3 potency” value is listed as at least 8 nM. The “effect of AL-102 on RTCC potency of BSBM3 (in words)” value in experiment [3] (combination with BSBM3) was “synergistically enhanced the RTCC potency of BSBM3; also recorded: enhanced the RTCC potency of BSBM3 in a dose dependent manner”.
